Measurements taken from ChEMBL document CHEMBL1641539 (Bioorg Med Chem Lett, 2011).

What was measured:
[1] = molecular target: Mitogen-activated protein kinase 1 (Homo sapiens, UniProt P28482); test: Inhibition of human MAPK2 at 10 uM after 60 mins by TR-FRET assay; settings: values are per cent of control
[2] = molecular target: Serine/threonine-protein kinase PAK 6 (Homo sapiens) (UniProt Q9NQU5); test: Inhibition of human PAK6 at 10 uM after 60 mins by TR-FRET assay; values are per cent of control
[3] = system: Epidermal growth factor receptor (Homo sapiens), P00533 [T790M]; test: Inhibition of human EGFR T790M mutant at 10 uM after 60 mins by TR-FRET assay; format: protein assay; settings: values are per cent of control
[4] = molecular target: Serine/threonine-protein kinase mTOR (Homo sapiens) (UniProt P42345); test: Inhibition of human mTOR at 10 uM after 60 mins by TR-FRET assay; settings: values are per cent of control
[5] = molecular target: Macrophage colony-stimulating factor 1 receptor (Homo sapiens) (UniProt P07333); test: Inhibition of human Fms at 10 uM after 60 mins by TR-FRET assay; values are per cent of control
Macrophage colony-stimulating factor 1 receptor (Homo sapiens), sequence (P07333 whole entry): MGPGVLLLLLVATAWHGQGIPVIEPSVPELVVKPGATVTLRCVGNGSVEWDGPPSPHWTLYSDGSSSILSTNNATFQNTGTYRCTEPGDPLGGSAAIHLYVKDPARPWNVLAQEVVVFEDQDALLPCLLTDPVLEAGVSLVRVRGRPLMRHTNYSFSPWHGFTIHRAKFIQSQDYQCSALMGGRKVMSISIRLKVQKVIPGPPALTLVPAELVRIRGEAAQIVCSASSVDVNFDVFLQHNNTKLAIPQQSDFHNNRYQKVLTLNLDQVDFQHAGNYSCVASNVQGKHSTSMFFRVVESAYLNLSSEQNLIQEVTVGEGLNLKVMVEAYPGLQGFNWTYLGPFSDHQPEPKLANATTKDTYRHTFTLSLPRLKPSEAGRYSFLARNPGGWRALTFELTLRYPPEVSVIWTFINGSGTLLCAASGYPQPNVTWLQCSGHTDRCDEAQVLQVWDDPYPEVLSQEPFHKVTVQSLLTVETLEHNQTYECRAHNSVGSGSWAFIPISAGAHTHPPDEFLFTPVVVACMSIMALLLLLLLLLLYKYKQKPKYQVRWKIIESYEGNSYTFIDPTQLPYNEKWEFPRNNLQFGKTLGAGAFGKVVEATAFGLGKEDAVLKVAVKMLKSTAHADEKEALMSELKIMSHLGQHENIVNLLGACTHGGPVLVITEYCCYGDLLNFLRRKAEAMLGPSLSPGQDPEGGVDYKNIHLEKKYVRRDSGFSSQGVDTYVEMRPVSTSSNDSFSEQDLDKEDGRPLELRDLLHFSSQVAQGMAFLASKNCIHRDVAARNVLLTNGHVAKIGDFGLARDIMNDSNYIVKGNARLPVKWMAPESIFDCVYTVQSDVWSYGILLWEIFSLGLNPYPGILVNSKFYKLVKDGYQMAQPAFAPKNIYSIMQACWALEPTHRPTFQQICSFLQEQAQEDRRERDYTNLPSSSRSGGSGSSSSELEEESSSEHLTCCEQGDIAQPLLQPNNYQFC

[6] = molecular target: Serine/threonine-protein kinase MARK2 (Homo sapiens) (UniProt Q7KZI7); test: Inhibition of human PAR-1Balpha at 10 uM after 60 mins by TR-FRET assay; values are per cent of control
[7] = system: Angiopoietin-1 receptor (Homo sapiens), Q02763 [Y897S]; test: Inhibition of human Tie2 Y897S mutant at 10 uM after 60 mins by TR-FRET assay; values are per cent of control
[8] = molecular target: Serine/threonine-protein kinase PAK 3 (Homo sapiens) (UniProt O75914); test: Inhibition of human PAK3 at 10 uM after 60 mins by TR-FRET assay; values are per cent of control
[9] = molecular target: Tyrosine-protein kinase Fer (Homo sapiens) (UniProt P16591); test: Inhibition of human Fer at 10 uM after 60 mins by TR-FRET assay; values are per cent of control
Tyrosine-protein kinase Fer (Homo sapiens), sequence (P16591 whole entry, looked up): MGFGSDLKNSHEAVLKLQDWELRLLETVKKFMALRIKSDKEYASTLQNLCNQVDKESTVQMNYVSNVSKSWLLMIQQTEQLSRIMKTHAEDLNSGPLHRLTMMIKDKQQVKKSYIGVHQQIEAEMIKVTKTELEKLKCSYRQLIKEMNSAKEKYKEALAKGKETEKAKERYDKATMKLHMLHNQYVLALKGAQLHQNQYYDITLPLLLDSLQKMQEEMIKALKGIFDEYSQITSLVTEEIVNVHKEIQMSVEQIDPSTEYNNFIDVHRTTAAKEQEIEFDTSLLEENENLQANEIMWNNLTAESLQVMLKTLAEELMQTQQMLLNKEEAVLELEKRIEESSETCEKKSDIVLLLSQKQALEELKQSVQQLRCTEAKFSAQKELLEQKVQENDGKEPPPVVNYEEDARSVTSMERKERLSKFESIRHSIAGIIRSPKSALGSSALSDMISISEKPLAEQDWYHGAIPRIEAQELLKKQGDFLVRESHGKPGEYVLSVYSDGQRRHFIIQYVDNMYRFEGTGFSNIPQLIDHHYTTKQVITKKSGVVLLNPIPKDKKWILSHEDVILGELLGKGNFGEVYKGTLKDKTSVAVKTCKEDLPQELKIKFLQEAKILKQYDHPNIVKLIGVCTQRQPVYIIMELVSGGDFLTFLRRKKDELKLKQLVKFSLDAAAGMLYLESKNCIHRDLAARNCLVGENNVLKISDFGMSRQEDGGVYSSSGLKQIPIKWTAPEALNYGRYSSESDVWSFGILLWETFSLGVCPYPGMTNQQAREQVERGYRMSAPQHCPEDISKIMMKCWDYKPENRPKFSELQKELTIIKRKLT

[10] = molecular target: Tyrosine-protein kinase JAK2 (Homo sapiens) (UniProt O60674); test: Inhibition of human JAK2 at 10 uM after 60 mins by TR-FRET assay; settings: values are per cent of control
[11] = molecular target: Tyrosine-protein kinase TXK (Homo sapiens) (UniProt P42681); test: Inhibition of human Txk at 10 uM after 60 mins by TR-FRET assay; values are per cent of control
[12] = molecular target: G protein-coupled receptor kinase 6 (Homo sapiens) (UniProt P43250); test: Inhibition of human GRK6 at 10 uM after 60 mins by TR-FRET assay; values are per cent of control
[13] = molecular target: Ephrin type-A receptor 8 (Homo sapiens) (UniProt P29322); test: Inhibition of human EphA8 at 10 uM after 60 mins by TR-FRET assay; values are per cent of control
Ephrin type-A receptor 8 (Homo sapiens), sequence (P29322 whole entry): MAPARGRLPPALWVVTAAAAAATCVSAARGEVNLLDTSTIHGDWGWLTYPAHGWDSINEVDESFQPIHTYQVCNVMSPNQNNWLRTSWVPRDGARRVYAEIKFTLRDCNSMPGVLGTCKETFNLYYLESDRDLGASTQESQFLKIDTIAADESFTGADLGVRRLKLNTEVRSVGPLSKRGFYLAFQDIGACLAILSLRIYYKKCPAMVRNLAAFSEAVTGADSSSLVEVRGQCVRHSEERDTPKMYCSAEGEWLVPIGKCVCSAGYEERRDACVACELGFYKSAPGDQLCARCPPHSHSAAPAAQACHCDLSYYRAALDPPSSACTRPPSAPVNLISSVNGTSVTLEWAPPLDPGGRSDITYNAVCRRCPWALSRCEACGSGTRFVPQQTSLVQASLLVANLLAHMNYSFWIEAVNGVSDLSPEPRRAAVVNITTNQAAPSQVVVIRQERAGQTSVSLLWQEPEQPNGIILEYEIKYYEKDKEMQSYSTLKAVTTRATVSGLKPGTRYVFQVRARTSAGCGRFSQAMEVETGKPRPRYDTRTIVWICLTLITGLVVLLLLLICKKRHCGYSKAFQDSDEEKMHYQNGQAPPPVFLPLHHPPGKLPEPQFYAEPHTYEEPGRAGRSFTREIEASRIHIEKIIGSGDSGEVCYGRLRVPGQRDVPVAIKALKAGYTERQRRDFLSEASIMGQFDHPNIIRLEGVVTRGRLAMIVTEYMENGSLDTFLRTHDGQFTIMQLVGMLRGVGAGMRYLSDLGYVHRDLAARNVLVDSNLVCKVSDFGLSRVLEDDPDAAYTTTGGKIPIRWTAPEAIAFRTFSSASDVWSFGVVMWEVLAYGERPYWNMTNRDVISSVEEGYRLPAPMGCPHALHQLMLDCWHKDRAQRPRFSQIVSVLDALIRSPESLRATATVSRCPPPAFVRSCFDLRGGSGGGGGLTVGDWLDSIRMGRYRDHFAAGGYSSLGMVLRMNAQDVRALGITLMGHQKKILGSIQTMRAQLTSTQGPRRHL

[14] = molecular target: Calcium/calmodulin-dependent protein kinase type 1D (Homo sapiens) (UniProt Q8IU85); test: Inhibition of human CaMK1delta at 10 uM after 60 mins by TR-FRET assay; values are per cent of control
Calcium/calmodulin-dependent protein kinase type 1D (Homo sapiens), sequence (Q8IU85 whole entry, looked up): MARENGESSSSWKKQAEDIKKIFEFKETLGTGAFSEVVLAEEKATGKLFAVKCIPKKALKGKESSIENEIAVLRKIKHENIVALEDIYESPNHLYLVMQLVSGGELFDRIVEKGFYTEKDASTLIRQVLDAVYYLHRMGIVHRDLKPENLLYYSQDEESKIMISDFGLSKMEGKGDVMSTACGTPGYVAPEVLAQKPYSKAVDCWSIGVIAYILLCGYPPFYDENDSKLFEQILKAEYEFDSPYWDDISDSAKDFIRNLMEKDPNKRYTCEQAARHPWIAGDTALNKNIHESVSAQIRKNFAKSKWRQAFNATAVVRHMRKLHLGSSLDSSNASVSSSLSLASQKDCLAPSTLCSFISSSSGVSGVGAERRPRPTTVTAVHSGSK

[15] = molecular target: Serine/threonine-protein kinase WNK2 (Homo sapiens) (UniProt Q9Y3S1); test: Inhibition of human WNK2 at 10 uM after 60 mins by TR-FRET assay; values are per cent of control
[16] = molecular target: Serine/threonine-protein kinase Sgk1 (Homo sapiens) (UniProt O00141); test: Inhibition of human SGK at 10 uM after 60 mins by TR-FRET assay; values are per cent of control
[17] = molecular target: Serine/threonine-protein kinase Sgk2 (Homo sapiens) (UniProt Q9HBY8); test: Inhibition of human SGK2 at 10 uM after 60 mins by TR-FRET assay; values are per cent of control
[18] = molecular target: Serine/threonine-protein kinase pim-1 (Homo sapiens) (UniProt P11309); test: Inhibition of human Pim-1 at 10 uM after 60 mins by TR-FRET assay; values are per cent of control
[19] = molecular target: Calcium/calmodulin-dependent protein kinase type II subunit gamma (Homo sapiens) (UniProt Q13555); test: Inhibition of human CaMK2gamma at 10 uM after 60 mins by TR-FRET assay; values are per cent of control
Calcium/calmodulin-dependent protein kinase type II subunit gamma (Homo sapiens), sequence (Q13555 whole entry): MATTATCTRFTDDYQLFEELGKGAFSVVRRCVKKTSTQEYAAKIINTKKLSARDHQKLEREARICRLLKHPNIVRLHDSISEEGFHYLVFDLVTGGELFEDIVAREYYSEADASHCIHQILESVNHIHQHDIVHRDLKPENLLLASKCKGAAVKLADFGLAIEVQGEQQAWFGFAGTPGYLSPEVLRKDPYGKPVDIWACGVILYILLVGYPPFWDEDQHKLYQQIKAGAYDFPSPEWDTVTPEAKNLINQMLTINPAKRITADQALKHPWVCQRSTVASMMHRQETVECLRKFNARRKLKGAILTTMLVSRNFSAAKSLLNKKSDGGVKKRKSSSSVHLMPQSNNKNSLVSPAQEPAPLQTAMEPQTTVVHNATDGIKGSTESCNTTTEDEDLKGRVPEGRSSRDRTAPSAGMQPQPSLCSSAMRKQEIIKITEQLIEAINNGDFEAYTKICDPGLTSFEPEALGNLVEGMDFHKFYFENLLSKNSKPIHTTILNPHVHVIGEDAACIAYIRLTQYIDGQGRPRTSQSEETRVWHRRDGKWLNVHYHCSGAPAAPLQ

[20] = system: Tyrosine-protein kinase ABL1 (Homo sapiens), P00519 [Y253F]; test: Inhibition of human Abl Y253F mutant at 10 uM after 60 mins by TR-FRET assay; values are per cent of control
[21] = molecular target: LIM domain kinase 1 (Homo sapiens) (UniProt P53667); test: Inhibition of human LIMK1 at 10 uM after 60 mins by TR-FRET assay; values are per cent of control
[22] = molecular target: Protein kinase C epsilon type (Homo sapiens) (UniProt Q02156); test: Inhibition of human PKCepsilon at 10 uM after 60 mins by TR-FRET assay; values are per cent of control
[23] = molecular target: CDK6/cyclin D3 (Homo sapiens) (UniProt P30281+Q00534); test: Inhibition of human CDK6/cyclinD3 at 10 uM after 60 mins by TR-FRET assay; values are per cent of control
[24] = molecular target: Serine/threonine-protein kinase TBK1 (Homo sapiens) (UniProt Q9UHD2); test: Inhibition of human TBK1 at 10 uM after 60 mins by TR-FRET assay; values are per cent of control
Serine/threonine-protein kinase TBK1 (Homo sapiens), sequence (Q9UHD2 whole entry): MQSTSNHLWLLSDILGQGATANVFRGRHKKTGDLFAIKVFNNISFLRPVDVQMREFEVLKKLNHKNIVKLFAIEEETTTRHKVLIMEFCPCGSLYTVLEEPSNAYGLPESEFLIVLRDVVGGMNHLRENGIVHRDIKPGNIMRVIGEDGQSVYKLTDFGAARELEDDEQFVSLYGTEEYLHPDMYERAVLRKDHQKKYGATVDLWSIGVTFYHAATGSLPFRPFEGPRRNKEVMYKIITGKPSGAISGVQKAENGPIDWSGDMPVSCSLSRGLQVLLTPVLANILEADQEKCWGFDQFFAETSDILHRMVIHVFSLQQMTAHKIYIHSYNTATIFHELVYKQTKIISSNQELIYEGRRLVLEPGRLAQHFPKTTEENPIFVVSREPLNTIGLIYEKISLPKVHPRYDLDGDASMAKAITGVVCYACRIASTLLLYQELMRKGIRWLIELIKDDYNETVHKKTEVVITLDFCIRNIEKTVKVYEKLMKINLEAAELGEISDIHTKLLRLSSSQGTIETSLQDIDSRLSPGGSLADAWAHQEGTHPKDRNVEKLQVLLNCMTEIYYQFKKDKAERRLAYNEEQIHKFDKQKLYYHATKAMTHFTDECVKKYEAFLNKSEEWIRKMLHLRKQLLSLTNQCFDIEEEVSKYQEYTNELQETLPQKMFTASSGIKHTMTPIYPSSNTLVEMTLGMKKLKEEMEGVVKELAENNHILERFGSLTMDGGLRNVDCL

[25] = molecular target: Ribosomal protein S6 kinase alpha-1 (Rattus norvegicus) (UniProt Q63531); test: Inhibition of rat Rsk1 at 10 uM after 60 mins by TR-FRET assay; values are per cent of control
[26] = system: Epidermal growth factor receptor (Homo sapiens), P00533 [L861Q]; test: Inhibition of human EGFR L861Q mutant at 10 uM after 60 mins by TR-FRET assay; format: protein assay; settings: values are per cent of control
Rattus norvegicus = organism: Rattus norvegicus; test: Inhibition of rat CaMK2 at 10 uM after 60 mins by TR-FRET assay; values are per cent of control
[27] = molecular target: mTOR/FKBP12A/FKBP12B (Homo sapiens) (UniProt P62942+P68106+P42345); test: Inhibition of human mTOR/FKBP12 at 10 uM after 60 mins by TR-FRET assay; format: protein-complex assay; settings: values are per cent of control

Mitogen-activated protein kinase 1, sequence (P28482 whole entry): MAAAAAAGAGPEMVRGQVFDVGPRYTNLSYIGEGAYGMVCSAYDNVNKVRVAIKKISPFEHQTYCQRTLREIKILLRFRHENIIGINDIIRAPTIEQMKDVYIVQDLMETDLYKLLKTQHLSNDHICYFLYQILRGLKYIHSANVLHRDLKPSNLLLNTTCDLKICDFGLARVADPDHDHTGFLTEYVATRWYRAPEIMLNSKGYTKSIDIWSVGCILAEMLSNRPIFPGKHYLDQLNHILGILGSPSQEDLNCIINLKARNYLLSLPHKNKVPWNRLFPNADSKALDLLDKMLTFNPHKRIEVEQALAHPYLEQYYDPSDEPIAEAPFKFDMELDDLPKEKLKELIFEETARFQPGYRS

## S=c1[nH]nc(-c2ccncc2)n1-c1ccc2ccccc2c1
[1]
  residual activity: 114%
[2]
  residual activity: 103%
[3]
  residual activity: 98%
[4]
  residual activity: 98%
[5]
  residual activity: 96%
[6]
  residual activity: 110%
[7]
  residual activity: 92%
[8]
  residual activity: 99%
[9]
  residual activity: 99%
[10]
  residual activity: 110%
[11]
  residual activity: 93%
[12]
  residual activity: 108%
[13]
  residual activity: 99%
[14]
  residual activity: 104%
[15]
  residual activity: 108%
[16]
  residual activity: 109%
[17]
  residual activity: 119%
[18]
  residual activity: 96%
[19]
  residual activity: 118%
[20]
  residual activity: 105%
[21]
  residual activity: 101%
[22]
  residual activity: 100%
[23]
  residual activity: 102%
[24]
  residual activity: 108%
[25]
  residual activity: 103%
[26]
  residual activity: 64%
Rattus norvegicus
  residual activity: 110%
[27]
  residual activity: 107%
